Laboratory results: paper PMC6270976, “Pharmacokinetic Study in Mice of Galphimine-A, an Anxiolytic Compound from Galphimia glauca” (Molecules, 2014)
“Also recorded” adds a separate entry of the source. Where two headings read alike, the source gives them in different places.

Tests used:
[1] = cited from earlier work
[2] = Brain tissue pharmacokinetics of G–A after a single oral dose in ICR mice (HPLC, PKSolver); type: in vivo
Description: Eighty-eight mice were randomly divided into 11 groups with eight individuals each. All animals were orally administered with 200 mg/kg of G–A dissolved in 5% β-cyclodextrin solution. Under ether-induced anesthesia, blood samples were obtained from the retroorbital sinus with heparinized cannula at different times (0, 5, 10, 15, 30, 60, 120, 240, 480, 720, and 1,440 min) after G–A administration. The volume of the blood samples was of 700 to 1000 microliters, which were collected in heparinized centrifuge microtubes, after the blood was centrifuged for 5 min at 1,720 × g.
Plasma samples were frozen at −70 °C, and lyophilized after. The obtained dry product was used to extract and measure the amount of G–A. After obtaining blood samples, all animals were perfused with isotonic saline solution (ISS) via cardiac puncture; the femoral vein was used to eliminate the perfusion liquid, until it appeared clear. Subsequently, the brain was removed. The brains were weighed fresh and frozen at −70 °C and then lyophilized. Once dry, the brains were weighed again to determine the volume of water contained in each brain. Dry tissue was ground in a mortar, and G–A was later extracted.
Dry pulverized samples (plasma and brain) were extracted with methanol (HPLC grade, Merck). The extracts were filtered with a 0.45 μm, 13 mm Teflon membrane (Millex®-LCR), and 20 μL of filtrate were injected into the HPLC equipment. Measurements were performed in a Waters 2695 HPLC, with diode array detector (Waters 2996) and the Empower Pro 1.0 software. A Chromolith Performance® RP-18e 100 × 4.6 mm (Merck KGaA Darmstadt, Germany) was used. The mobile phase consisted of a mixture of acetonitrile:water (55:45, 1 mL/min). G–A concentration was obtained by comparison with a pre-built calibration curve at λ = 220 nm.
To evaluate the suitability of the assay for pharmacokinetic studies, 200 mg/kg of G–A was orally administered to mice. Eight animals were used in each group different times (0, 5, 10, 15, 30, 60, 120, 240, 480, 720, and 1440 min). Pharmacokinetic calculations were performed using the observed data. All data were subsequently processed using PKSolver add-in program for Microsoft Excel written in Visual Basic for Applications. […]
The pharmacokinetic model selection either one or two-comparment, were used both the Akaike information criterion (AIC) and Schwarz criterion (SC). Using the criteria, one may select the model with which to reach a lower value of AIC or SC, which means that the chosen model is more parsimonious (less parameters required) and best fits the data (low error prediction).

[3] = brain tissue, oral 200 mg/kg, n = 8
[4] = mouse, brain tissue, oral 200 mg/kg, n = 8

For `COC(=O)[C@@]12CC[C@]3(C)C([C@H](O)[C@H](O)[C@@]4([C@@H](C)O)COC(=O)C=C[C@H]43)[C@@]1(C)CC[C@@]1(C)CC=C(C)C[C@]12O` (stereo partly drawn) [G–A, galphimine-A], the Anxiolytic effect ([1]; 15 mg/kg dose administered intraperitoneally) is listed as “anxiolytic effects”, the Anxiolytic activity ([1]; among the galphimines) is listed as “most active; also recorded: highest anxiolytic activity” and the “G–A Concentration Brain” value ([2]; 1440 min (24 h) after single oral 200 mg/kg, mean ± S.E.M., n = 8, 200 mg/kg) is listed as 0.32 ± 0.14 µg/mL. The Tmax ([2]; ICR, mouse, brain, po, 200 mg/kg, brain tissue, oral 200 mg/kg, n = 8, read-out: Tmax (converted)) was 1.36 h, the A [2, 3] was 2.98 µg/mL and the V/F [2, 3] was 68.16 (mg/kg)/(μg/mL). For the same molecule, the k10 [2, 3] was 0.0008 min⁻¹, the ka [2, 3] was 0.051 min⁻¹ and the Tmax ([2]; brain tissue, oral 200 mg/kg, n = 8, 200 mg/kg) was 1.36 h. It also gave an AUC(0-inf) [2, 4] of 58700 ng·h/mL, a CL/F [2, 4] of 57 mL/min/kg and a Cmax [2, 4] of 2740 ng/mL. For the same molecule, the MRT [2, 4] was 20.3 h, the AUC(0-t) ([2]; mouse, brain tissue, oral 200 mg/kg, n = 8, read-out: AUC0-1440 min (converted)) was 31900 ng·h/mL and the concentration at 5 min ([2]; mouse, brain, 5 min after single oral 200 mg/kg, mean ± S.E.M., n = 8) was 0 ng/mL. The concentration at 10 min ([2]; mouse, brain, 10 min after single oral 200 mg/kg, mean ± S.E.M., n = 8) was 880 ± 330 ng/mL, the concentration at 15 min ([2]; mouse, brain, 15 min after single oral 200 mg/kg, mean ± S.E.M., n = 8) was 1480 ± 580 ng/mL and the concentration at 30 min ([2]; mouse, brain, 30 min after single oral 200 mg/kg, mean ± S.E.M., n = 8) was 3440 ± 500 ng/mL. The concentration at 60 min ([2]; mouse, brain, 60 min after single oral 200 mg/kg, mean ± S.E.M., n = 8) was 3010 ± 590 ng/mL, the concentration at 120 min ([2]; mouse, brain, 120 min after single oral 200 mg/kg, mean ± S.E.M., n = 8) was 2500 ± 580 ng/mL and the concentration at 240 min ([2]; mouse, brain, 240 min after single oral 200 mg/kg, mean ± S.E.M., n = 8) was 2180 ± 480 ng/mL. The concentration at 480 min ([2]; mouse, brain, 480 min after single oral 200 mg/kg, mean ± S.E.M., n = 8) was 1780 ± 370 ng/mL, the concentration at 720 min ([2]; mouse, brain, 720 min after single oral 200 mg/kg, mean ± S.E.M., n = 8) was 550 ± 180 ng/mL and the concentration at 1440 min ([2]; mouse, brain, 1440 min (24 h) after single oral 200 mg/kg, mean ± S.E.M., n = 8) was 320 ng/mL.
